Experimental data published in patent US9730938B2, “Bruton's tyrosine kinase inhibitor combinations and uses thereof” (Pharmacyclics LLC, priority 2014, dated 2017).

Assays:
Experiment in all cases: Combined drug treatment cell viability, CellTiter-Glo assay (Example 1)
Format in all cases: cell-based
Details in all cases: 3 days
TMD8 = test system: TMD8
Experimental: (§1) DLBCL cells at either 1×10^4 cells or 2×10^4 cells were plated onto each well of a 96-W plate (Table 1).
(§2) The stock solutions for the IDH1 inhibitor AGI5198 and the MALT1 inhibitor MI-2 were each prepared at 50 mM concentration.
(§3) The 96-W plate was then incubated for 3 days. Cell viability was examined using a CellTiter-Glo assay.
(§4) A 40 μL of CellTiter-Glo reagent was added directly into each well of the 96-W plate. The plate was then shaken on a Shaker (Labsystem Wellmix) at speed 5 for 10-20 min at room temperature. Next, 100 μL of the mixed medium was transferred to a white, non-transparent, flat bottom 96-W plate for assaying. A Flexstation 3 luminometer was used for detecting and measuring the luminescent signals. Measurements were taken at room temperature.
(§5) In general, the combination is described as synergistic (CI<1), additive (CI=1), or antagonistic (CI>1). Synergism is further separated into very strong synergism (<0.1), strong synergism (0.1-0.3), synergism (0.3-0.7), moderate synergism (0.7-0.85), and slight synergism (0.85-0.9).

OCI-LY-3 = test system: OCI-LY-3
Experimental: as §1, §2, §3, §4, §5

U2932 = test system: U2932
Experimental: as §1, §2, §3, §4, §5

SU-DHL-2 = test system: SU-DHL-2
Experimental: as §1, §2, §3, §4, §5

OCI-LY-10 = test system: OCI-LY-10
Experimental: as §1, §2, §3, §4, §5

[1] = ibrutinib 0 nM, IDH1i 10 uM / MALT1i 5 uM alone
[2] = ibrutinib 0.0256 nM, IDH1i 10 uM / MALT1i 5 uM / medium alone
[3] = ibrutinib 0.128 nM, IDH1i 10 uM / MALT1i 5 uM / medium alone
[4] = ibrutinib 0.64 nM, IDH1i 10 uM / MALT1i 5 uM / medium alone
[5] = ibrutinib 3.2 nM, IDH1i 10 uM / MALT1i 5 uM / medium alone
[6] = ibrutinib 16 nM, IDH1i 10 uM / MALT1i 5 uM / medium alone
[7] = ibrutinib 80 nM, IDH1i 10 uM / MALT1i 5 uM / medium alone
[8] = ibrutinib 400 nM, IDH1i 10 uM / MALT1i 5 uM / medium alone
[9] = ibrutinib 2000 nM, IDH1i 10 uM / MALT1i 5 uM / medium alone
[10] = ibrutinib 10000 nM, IDH1i 10 uM / MALT1i 5 uM / medium alone
[11] = ibrutinib 0 nM, IDH1i 10 uM / MALT1i 200 nM alone
[12] = ibrutinib 0.0256 nM, IDH1i 10 uM / MALT1i 200 nM / medium alone
[13] = ibrutinib 0.128 nM, IDH1i 10 uM / MALT1i 200 nM / medium alone
[14] = ibrutinib 0.64 nM, IDH1i 10 uM / MALT1i 200 nM / medium alone
[15] = ibrutinib 3.2 nM, IDH1i 10 uM / MALT1i 200 nM / medium alone
[16] = ibrutinib 16 nM, IDH1i 10 uM / MALT1i 200 nM / medium alone
[17] = ibrutinib 80 nM, IDH1i 10 uM / MALT1i 200 nM / medium alone
[18] = ibrutinib 400 nM, IDH1i 10 uM / MALT1i 200 nM / medium alone
[19] = ibrutinib 2000 nM, IDH1i 10 uM / MALT1i 200 nM / medium alone
[20] = ibrutinib 10000 nM, IDH1i 10 uM / MALT1i 200 nM / medium alone

SMILES: Cc1ccccc1C(C(=O)NC1CCCCC1)N(C(=O)Cn1ccnc1C)c1cccc(F)c1 (centres unmarked) [AGI5198]
- luminescence (CellTiter-Glo) (TMD8; ibrutinib 0 nM, IDH1i 10 uM / MALT1i 100 nM alone): 75993.70
- luminescence (CellTiter-Glo) (TMD8; ibrutinib 0.0256 nM, IDH1i 10 uM / MALT1i 100 nM / medium alone): 25500.80
- luminescence (CellTiter-Glo) (TMD8; ibrutinib 0.128 nM, IDH1i 10 uM / MALT1i 100 nM / medium alone): 25788.09
- luminescence (CellTiter-Glo) (TMD8; ibrutinib 0.64 nM, IDH1i 10 uM / MALT1i 100 nM / medium alone): 22928.31
- luminescence (CellTiter-Glo) (TMD8; ibrutinib 3.2 nM, IDH1i 10 uM / MALT1i 100 nM / medium alone): 23004.75
- luminescence (CellTiter-Glo) (TMD8; ibrutinib 16 nM, IDH1i 10 uM / MALT1i 100 nM / medium alone): 22519.77
- luminescence (CellTiter-Glo) (TMD8; ibrutinib 80 nM, IDH1i 10 uM / MALT1i 100 nM / medium alone): 22451.24
- luminescence (CellTiter-Glo) (TMD8; ibrutinib 400 nM, IDH1i 10 uM / MALT1i 100 nM / medium alone): 19936.75
- luminescence (CellTiter-Glo) (TMD8; ibrutinib 2000 nM, IDH1i 10 uM / MALT1i 100 nM / medium alone): 19649.45
- luminescence (CellTiter-Glo) (TMD8; ibrutinib 10000 nM, IDH1i 10 uM / MALT1i 100 nM / medium alone): 9604.64
- luminescence (CellTiter-Glo) (OCI-LY-3; [1]): 61813.89
- luminescence (CellTiter-Glo) (OCI-LY-3; [2]): 60845.63
- luminescence (CellTiter-Glo) (OCI-LY-3; [3]): 58171.75
- luminescence (CellTiter-Glo) (OCI-LY-3; [4]): 64267.34
- luminescence (CellTiter-Glo) (OCI-LY-3; [5]): 61774.53
- luminescence (CellTiter-Glo) (OCI-LY-3; [6]): 63970.82
- luminescence (CellTiter-Glo) (OCI-LY-3; [7]): 65372.05
- luminescence (CellTiter-Glo) (OCI-LY-3; [8]): 68413.28
- luminescence (CellTiter-Glo) (OCI-LY-3; [9]): 66282.58
- luminescence (CellTiter-Glo) (OCI-LY-3; [10]): 58163.88
- luminescence (CellTiter-Glo) (U2932; [11]): 52209.68
- luminescence (CellTiter-Glo) (U2932; [12]): 47490.41
- luminescence (CellTiter-Glo) (U2932; [13]): 48958.10
- luminescence (CellTiter-Glo) (U2932; [14]): 45155.81
- luminescence (CellTiter-Glo) (U2932; [15]): 46620.86
- luminescence (CellTiter-Glo) (U2932; [16]): 43920.00
- luminescence (CellTiter-Glo) (U2932; [17]): 43730.28
- luminescence (CellTiter-Glo) (U2932; [18]): 45769.76
- luminescence (CellTiter-Glo) (U2932; [19]): 43047.82
- luminescence (CellTiter-Glo) (U2932; [20]): 31970.32
- luminescence (CellTiter-Glo) (SU-DHL-2; [11]): 124126.7
- luminescence (CellTiter-Glo) (SU-DHL-2; [12]): 130906.9
- luminescence (CellTiter-Glo) (SU-DHL-2; [13]): 145229.1
- luminescence (CellTiter-Glo) (SU-DHL-2; [14]): 142615.3
- luminescence (CellTiter-Glo) (SU-DHL-2; [15]): 156751.0
- luminescence (CellTiter-Glo) (SU-DHL-2; [16]): 152240.5
- luminescence (CellTiter-Glo) (SU-DHL-2; [17]): 152613.5
- luminescence (CellTiter-Glo) (SU-DHL-2; [18]): 145121.4
- luminescence (CellTiter-Glo) (SU-DHL-2; [19]): 149634.6
- luminescence (CellTiter-Glo) (SU-DHL-2; [20]): 50666.3
- luminescence (CellTiter-Glo) (OCI-LY-10; [1]): 54469.95
- luminescence (CellTiter-Glo) (OCI-LY-10; [2]): 60402.37
- luminescence (CellTiter-Glo) (OCI-LY-10; [3]): 45182.13
- luminescence (CellTiter-Glo) (OCI-LY-10; [4]): 49163.38
- luminescence (CellTiter-Glo) (OCI-LY-10; [5]): 37017.16
- luminescence (CellTiter-Glo) (OCI-LY-10; [6]): 22951.32
- luminescence (CellTiter-Glo) (OCI-LY-10; [7]): 21796.92
- luminescence (CellTiter-Glo) (OCI-LY-10; [8]): 22543.73
- luminescence (CellTiter-Glo) (OCI-LY-10; [9]): 22738.32
- luminescence (CellTiter-Glo) (OCI-LY-10; [10]): 21999.40
